Reference: patent publication US11590116B2 (THERAVANCE BIOPHARMA R&D IP, LLC, priority 2019, dated 2023)

Tests used:
[1] = target: T1, recombinant human ALK5 (TGF-βR1) protein (Homo sapiens, UniProt P36897); assay: Biochemical ALK5 (TGF-βR1) assay to measure pKi (LANCE Ultra ULight kinase assay); details: apparent pKi from pIC50 by Cheng-Prusoff, read-out: ALK5 pKi (converted)
T1 construct: purchased Life Technologies PR9075A
T1 sequence (P36897 34-503): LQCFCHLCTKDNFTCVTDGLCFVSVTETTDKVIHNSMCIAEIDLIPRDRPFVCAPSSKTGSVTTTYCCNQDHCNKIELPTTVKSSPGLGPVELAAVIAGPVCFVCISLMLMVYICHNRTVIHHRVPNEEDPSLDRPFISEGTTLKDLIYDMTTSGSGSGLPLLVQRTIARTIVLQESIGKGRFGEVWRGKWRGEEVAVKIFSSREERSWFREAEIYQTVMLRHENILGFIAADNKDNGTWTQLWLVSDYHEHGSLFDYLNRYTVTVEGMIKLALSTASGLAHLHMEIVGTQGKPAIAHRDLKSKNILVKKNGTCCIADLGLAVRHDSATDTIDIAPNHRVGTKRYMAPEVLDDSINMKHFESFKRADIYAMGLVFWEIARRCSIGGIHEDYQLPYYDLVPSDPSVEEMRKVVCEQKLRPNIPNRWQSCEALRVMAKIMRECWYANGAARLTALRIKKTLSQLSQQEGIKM
Method in brief: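 Compounds (10 μM to 25 pM) preincubated 60 minutes at room temperature with enzyme, then reaction run 60 minutes at 37° C with ATP added as 125 μM (5× final). Stopped with EDTA plus Eu-anti-phospho-Topoisomerase 2-alpha (Thr1342) antibody, TR-FRET read at 665 nm; pIC50 converted to pKi via Cheng-Prusoff.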

[2] = system: TGF-β-stimulated SMAD3 phosphorylation in BEAS-2B cells; assay: Cellular ALK5 potency assay, inhibition of TGF-β stimulated pSMAD3 formation in BEAS-2B cells; format: cell-based; details: Homo sapiens; inhibition of TGF-β stimulated pSMAD3 formation, BEAS-2B cells; read-out: BEAS2B pIC50 (converted)
Method in brief: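 Potency is reported as pIC50, derived from concentration-dependent reduction of pSMAD3 AlphaLISA signal against TGF-β-stimulated cells without compound. BEAS-2B cells received compound for 1 h before a 30-min stimulation with 10 ng/mL TGF-β.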

Compound | Ki [1] [nM] | IC50 [2] [nM]
Cc1cccc(-c2n[nH]cc2-c2ccc3ncc(N4CCCN(C)C(C)C4)cc3n2)n1 (racemic) [Compound 19, 2-[3-(6-methyl-2-pyridyl)-1H-pyrazol-4-yl]-7-[rac-(3S)-3,4-dimethyl-1,4-diazepan-1-yl]-1,5-naphthyridine] | 0.0398 to 0.316 | 25.1 to 158
Cc1nc(-c2nc3ccccn3c2-c2ccc3ncc(N4CCC(N(C)C)C4)cc3n2)ccc1F (racemic) [Compound 347, rac-(3S)-1-[6-[2-(5-fluoro-6-methyl-2-pyridyl)imidazo[1,2-a]pyridin-3-yl]-1,5-naphthyridin-3-yl]-N,N-dimethyl-pyrrolidin-3-amine] | 0.0398 to 0.316 | 25.1 to 158
Cc1cccc(-c2[nH]cnc2-c2ccc3ncc(-c4cnc5c(c4)CCC5N)cc3c2)n1 (centres unmarked) [Compound 734, 3-[6-[5-(6-methyl-2-pyridyl)-1H-imidazol-4-yl]-3-quinolyl]-6,7-dihydro-5H-cyclopenta[b]pyridin-7-amine] | 0.0398 to 0.316 | 25.1 to 158
Cc1cccc(-c2n[nH]cc2-c2ccc3ncc(-c4cnc(N)s4)cc3n2)n1 [Compound 333, 5-[6-[3-(6-methyl-2-pyridyl)-1H-pyrazol-4-yl]-1,5-naphthyridin-3-yl]thiazol-2-amine] | 0.0398 to 0.316 | 25.1 to 158
Cc1cccc(-c2[nH]cnc2-c2ccc3ncc(-c4ncc(C(=O)OC5CNC5)cn4)cc3c2)n1 [Compound 1063, azetidin-3-yl 2-[6-[5-(6-methyl-2-pyridyl)-1H-imidazol-4-yl]-3-quinolyl]pyrimidine-5-carboxylate] | 0.0398 to 0.316 | 25.1 to 158
Cc1cccc(-c2[nH]cnc2-c2ccc3ncc(NCCN4CCC5(CCNC5)C4)cc3c2)n1 (centres unmarked) [Compound 711, N-[2-(2,7-diazaspiro[4.4]nonan-2-yl)ethyl]-6-[5-(6-methyl-2-pyridyl)-1H-imidazol-4-yl]quinolin-3-amine] | 0.0398 to 0.316 | 200 to 1260
Cc1cccc(-c2n[nH]cc2-c2ccc3nccc(CCC(=O)N4CCOCC4)c3n2)n1 [Compound 810, 3-[6-[3-(6-methyl-2-pyridyl)-1H-pyrazol-4-yl]-1,5-naphthyridin-4-yl]-1-morpholino-propan-1-one] | 0.398 to 3.16 | 200 to 1260
Cc1cccc(-c2[nH]nnc2-c2ccc3ncc(NCCN4CCN(C(C)C)CC4)cc3n2)n1 [Compound 46, N-[2-(4-isopropylpiperazin-1-yl)ethyl]-6-[5-(6-methyl-2-pyridyl)-1H-triazol-4-yl]-1,5-naphthyridin-3-amine] | 0.398 to 3.16 | 200 to 1260
Cc1cccc(-c2n[nH]cc2-c2ccc3ncc(-c4nc(CCN)c(C)[nH]4)cc3n2)n1 [Compound 671, 2-[5-methyl-2-[6-[3-(6-methyl-2-pyridyl)-1H-pyrazol-4-yl]-1,5-naphthyridin-3-yl]-1H-imidazol-4-yl]ethanamine] | 0.0398 to 0.316 | 200 to 1260
Cc1cccc(-c2[nH]cnc2-c2ccc3ncc(NC(=O)C4CCNCC4)cc3c2)n1 [Compound 649, N-[6-[5-(6-methyl-2-pyridyl)-1H-imidazol-4-yl]-3-quinolyl]piperidine-4-carboxamide] | 0.0398 to 0.316 | 200 to 1260
Cc1cccc(-c2[nH]cnc2-c2ccc3ncc(-c4nc(C(=O)O[C@H]5CCN(C)C5)cs4)cc3c2)n1 [Compound 747, [(3S)-1-methylpyrrolidin-3-yl] 2-[6-[5-(6-methyl-2-pyridyl)-1H-imidazol-4-yl]-3-quinolyl]thiazole-4-carboxylate] | 0.0398 to 0.316 | < 20
Cc1cccc(-c2nc3ccccn3c2-c2ccc3ncc(N4CCCNCC4)cc3n2)n1 [Compound 646, 7-(1,4-diazepan-1-yl)-2-[2-(6-methyl-2-pyridyl)imidazo[1,2-a]pyridin-3-yl]-1,5-naphthyridine] | 0.0398 to 0.316 | 25.1 to 158
Cc1cccc(-c2[nH]cnc2-c2ccc3ncc(-c4ncc(CN5C[C@@H](C)N[C@@H](C)C5)s4)cc3c2)n1 [Compound 1028, 5-[[(3S,5R)-3,5-dimethylpiperazin-1-yl]methyl]-2-[6-[5-(6-methyl-2-pyridyl)-1H-imidazol-4-yl]-3-quinolyl]thiazole] | 0.0398 to 0.316 | < 20
Cc1cccc(-c2[nH]cnc2-c2ccc3ncc(C(=O)O[C@@H]4CCNC4)cc3c2)n1 [Compound 1149, [(3R)-pyrrolidin-3-yl] 6-[5-(6-methyl-2-pyridyl)-1H-imidazol-4-yl]quinoline-3-carboxylate] | 0.398 to 3.16 | 200 to 1260
Cc1cccc(-c2[nH]cnc2-c2ccc3ncc(-c4csc(C(=O)O)n4)cc3c2)n1 [Compound 1152, 4-[6-[5-(6-methyl-2-pyridyl)-1H-imidazol-4-yl]-3-quinolyl]thiazole-2-carboxylic acid] | < 0.0316 | < 20
Cc1cccc(-c2[nH]cnc2-c2ccc3ncc(-c4csc(C(=O)OCCN5C[C@@H](C)N[C@@H](C)C5)c4)cc3c2)n1 [Compound 1222, 2-[(3S,5R)-3,5-dimethylpiperazin-1-yl]ethyl 4-[6-[5-(6-methyl-2-pyridyl)-1H-imidazol-4-yl]-3-quinolyl]thiophene-2-carboxylate] | 0.0398 to 0.316 | 25.1 to 158
Cc1cccc(-c2n[nH]cc2-c2ccc3ncc(N4CCC(N(C)CC(C)C)CC4)cc3n2)n1 [Compound 403, N-isobutyl-N-methyl-1-[6-[3-(6-methyl-2-pyridyl)-1H-pyrazol-4-yl]-1,5-naphthyridin-3-yl]piperidin-4-amine] | 0.0398 to 0.316 | 25.1 to 158
Cc1cccc(-c2n[nH]cc2-c2ccc3nccc(CNCCN4CCOCC4)c3n2)n1 [Compound 816, N-[[6-[3-(6-methyl-2-pyridyl)-1H-pyrazol-4-yl]-1,5-naphthyridin-4-yl]methyl]-2-morpholino-ethanamine] | 0.0398 to 0.316 | 25.1 to 158
Cc1nc(-c2n[nH]cc2-c2ccc3ncc(NCCN4CCCC4(C)C)cc3n2)ccc1F [Compound 526, N-(2-(2,2-dimethylpyrrolidin-1-yl)ethyl)-6-(3-(5-fluoro-6-methylpyridin-2-yl)-1H-pyrazol-4-yl)-1,5-naphthyridin-3-amine] | < 0.0316 | 25.1 to 158
Cc1cccc(-c2n[nH]cc2-c2ccc3ncc(-c4ccnnc4)cc3n2)n1 [Compound 215, 2-[3-(6-methyl-2-pyridyl)-1H-pyrazol-4-yl]-7-pyridazin-4-yl-1,5-naphthyridine] | < 0.0316 | < 20
Cc1cccc(-c2[nH]cnc2-c2ccc3ncc(N4CCC5(CC4)CNC5)cc3c2)n1 [Compound 206, 3-(2,7-diazaspiro [3.5]nonan-7-yl)-6-[5-(6-methyl-2-pyridyl)-1H-imidazol-4-yl]quinoline] | 0.0398 to 0.316 | 25.1 to 158
Cc1cccc(-c2nc3ccccn3c2-c2ccc3ncc(N4CCC(N(C)C)C4)cc3n2)n1 (racemic) [Compound 285, rac-(3S)-N,N-dimethyl-1-[6-[2-(6-methyl-2-pyridyl)imidazo[1,2-a]pyridin-3-yl]-1,5-naphthyridin-3-yl]pyrrolidin-3-amine] | 0.0398 to 0.316 | 25.1 to 158
Cc1cccc(-c2nc[nH]c2-c2ccc3ncc(-c4cnn([C@H]5CCCC[C@@H]5N)c4)cc3c2)n1 [Compound 656, (1S,2S)-2-[4-[6-[4-(6-methyl-2-pyridyl)-1H-imidazol-5-yl]-3-quinolyl]pyrazol-1-yl]cyclohexanamine] | < 0.0316 | < 20
Cc1cccc(-c2[nH]cnc2-c2ccc3ncc(NCCN4CCCC4(C)C)cc3c2)n1 [Compound 56, N-[2-(2,2-dimethylpyrrolidin-1-yl)ethyl]-6-[5-(6-methyl-2-pyridyl)-1H-imidazol-4-yl]quinolin-3-amine] | < 0.0316 | 25.1 to 158
Cc1cccc(-c2n[nH]cc2-c2ccc3ncc(N4CCC(N5CCN(C)CC5)CC4)cc3c2)n1 [Compound 82, 3-(4-(4-Methylpiperazin-1-yl)piperidin-1-yl)-6-(3-(6-methylpyridin-2-yl)-1H-pyrazol-4-yl)quinoline] | 0.0398 to 0.316 | 25.1 to 158
Cc1cccc(-c2n[nH]cc2-c2ccc3nccc(-c4nc(CO)co4)c3n2)n1 [Compound 852, [2-[6-[3-(6-methyl-2-pyridyl)-1H-pyrazol-4-yl]-1,5-naphthyridin-4-yl]oxazol-4-yl]methanol] | 0.0398 to 0.316 | 25.1 to 158
Cc1cccc(-c2n[nH]cc2-c2ccc3ncc(-c4nnn5c4CNCC5)cc3n2)n1 [Compound 130, 2-[3-(6-methyl-2-pyridyl)-1H-pyrazol-4-yl]-7-(4,5,6,7-tetrahydrotriazolo[1,5-a]pyrazin-3-yl)-1,5-naphthyridine] | 0.0398 to 0.316 | 25.1 to 158
Cc1cccc(-c2[nH]cnc2-c2ccc3ncc(C(=O)OCCC4CCNC4)cc3c2)n1 (centres unmarked) [Compound 1153, 2-pyrrolidin-3-ylethyl 6-[5-(6-methyl-2-pyridyl)-1H-imidazol-4-yl]quinoline-3-carboxylate] | 0.0398 to 0.316 | 25.1 to 158
